# Measured values taken from publication PMC3236397 (Frontiers in Pharmacology, 2011).
# Assays:
# 5-HT1A = 5-HT1A (Homo sapiens, UniProt P08908); assay: GPCR cell-based functional assay, Safety and Liability Panel; settings: read-out: Percentage inhibition
# 5-HT2A = 5-HT2A (Homo sapiens, UniProt P28223); assay: as above; settings: read-out: Percentage inhibition
# 5-HT2B = 5-HT2B (Homo sapiens, UniProt P41595); assay: as above; settings: read-out: Percentage inhibition
# 5-HT2C = 5-HT2C (Homo sapiens, UniProt P28335); assay: as above; settings: read-out: Percentage inhibition
# A1 = A1 (Homo sapiens, UniProt P30542); assay: as above; settings: read-out: Percentage inhibition
# A3 = A3 (Homo sapiens, UniProt P0DMS8); assay: as above; settings: read-out: Percentage inhibition
# Chain of A3 (P0DMS8 whole entry): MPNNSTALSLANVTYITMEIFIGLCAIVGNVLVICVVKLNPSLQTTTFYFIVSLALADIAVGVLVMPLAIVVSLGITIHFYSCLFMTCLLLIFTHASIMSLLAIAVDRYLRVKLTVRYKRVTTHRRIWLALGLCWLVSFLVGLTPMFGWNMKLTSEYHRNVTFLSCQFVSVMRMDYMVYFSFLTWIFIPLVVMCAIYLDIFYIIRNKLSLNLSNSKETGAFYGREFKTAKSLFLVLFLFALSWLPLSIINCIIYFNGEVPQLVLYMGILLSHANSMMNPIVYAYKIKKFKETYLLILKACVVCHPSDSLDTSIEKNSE
# Alpha1A = Alpha1A (Homo sapiens, UniProt P35348); assay: as above; settings: read-out: Percentage inhibition
# Alpha1D = Alpha1D (Homo sapiens, UniProt P25100); assay: as above; settings: read-out: Percentage inhibition
# Alpha2A = Alpha2A (Homo sapiens, UniProt P08913); assay: as above; settings: read-out: Percentage inhibition
# AT1 = AT1 (Homo sapiens, UniProt P30556); assay: as above; settings: read-out: Percentage inhibition
# B2 = B2 (Homo sapiens, UniProt P30411); assay: as above; settings: read-out: Percentage inhibition
# Chain of B2 (P30411 whole entry): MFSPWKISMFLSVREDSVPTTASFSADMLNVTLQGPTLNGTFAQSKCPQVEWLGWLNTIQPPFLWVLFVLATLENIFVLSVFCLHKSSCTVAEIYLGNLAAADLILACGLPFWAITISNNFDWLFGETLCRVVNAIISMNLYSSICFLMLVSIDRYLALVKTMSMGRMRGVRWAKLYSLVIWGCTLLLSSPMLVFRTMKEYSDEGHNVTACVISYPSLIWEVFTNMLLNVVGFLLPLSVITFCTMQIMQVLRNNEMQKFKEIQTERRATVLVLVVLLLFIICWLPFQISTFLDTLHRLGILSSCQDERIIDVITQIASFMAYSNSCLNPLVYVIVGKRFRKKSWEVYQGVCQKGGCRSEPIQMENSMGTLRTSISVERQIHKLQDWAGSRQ
# BB2 = BB2 (Homo sapiens, UniProt P30550); assay: as above; settings: read-out: Percentage inhibition
# Beta 1 = Beta 1 (Homo sapiens, UniProt P08588); assay: as above; settings: read-out: Percentage inhibition
# Beta 2 = Beta 2 (Homo sapiens, UniProt P07550); assay: as above; settings: read-out: Percentage inhibition
# Chain of Beta 2 (P07550 whole entry): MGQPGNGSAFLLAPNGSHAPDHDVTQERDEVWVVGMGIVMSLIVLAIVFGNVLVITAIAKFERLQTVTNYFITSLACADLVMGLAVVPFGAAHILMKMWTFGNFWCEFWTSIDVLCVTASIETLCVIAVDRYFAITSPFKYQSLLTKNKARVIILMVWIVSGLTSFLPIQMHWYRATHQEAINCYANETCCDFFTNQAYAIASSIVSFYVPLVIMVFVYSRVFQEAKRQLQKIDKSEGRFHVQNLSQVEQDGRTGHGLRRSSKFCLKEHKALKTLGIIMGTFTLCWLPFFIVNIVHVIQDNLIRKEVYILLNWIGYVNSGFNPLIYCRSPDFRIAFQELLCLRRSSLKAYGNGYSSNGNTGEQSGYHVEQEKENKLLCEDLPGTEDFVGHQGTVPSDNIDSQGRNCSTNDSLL
# BLT1 = BLT1 (Homo sapiens, UniProt Q15722); assay: as above; settings: read-out: Percentage inhibition
# C5aR = C5aR (Homo sapiens, UniProt P21730); assay: as above; settings: read-out: Percentage inhibition
# Chain of C5aR (P21730 whole entry): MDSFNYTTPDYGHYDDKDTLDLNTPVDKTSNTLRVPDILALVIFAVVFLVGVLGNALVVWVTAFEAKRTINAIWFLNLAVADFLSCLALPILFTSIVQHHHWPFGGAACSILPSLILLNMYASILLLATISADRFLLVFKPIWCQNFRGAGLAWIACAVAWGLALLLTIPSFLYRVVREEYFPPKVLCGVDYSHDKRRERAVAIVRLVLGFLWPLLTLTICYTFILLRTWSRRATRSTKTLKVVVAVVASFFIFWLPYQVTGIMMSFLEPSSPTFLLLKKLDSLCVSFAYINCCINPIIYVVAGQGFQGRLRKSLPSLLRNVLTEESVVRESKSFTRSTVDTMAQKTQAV
# CB1 = CB1 (Homo sapiens, UniProt P21554); assay: as above; settings: read-out: Percentage inhibition
# CB2 = CB2 (Homo sapiens, UniProt P34972); assay: as above; settings: read-out: Percentage inhibition
# CCK2 = CCK2 (Homo sapiens, UniProt P32239); assay: as above; settings: read-out: Percentage inhibition
# CCR1 = CCR1 (Homo sapiens, UniProt P32246); assay: as above; settings: read-out: Percentage inhibition
# Chain of CCR1 (P32246 whole entry): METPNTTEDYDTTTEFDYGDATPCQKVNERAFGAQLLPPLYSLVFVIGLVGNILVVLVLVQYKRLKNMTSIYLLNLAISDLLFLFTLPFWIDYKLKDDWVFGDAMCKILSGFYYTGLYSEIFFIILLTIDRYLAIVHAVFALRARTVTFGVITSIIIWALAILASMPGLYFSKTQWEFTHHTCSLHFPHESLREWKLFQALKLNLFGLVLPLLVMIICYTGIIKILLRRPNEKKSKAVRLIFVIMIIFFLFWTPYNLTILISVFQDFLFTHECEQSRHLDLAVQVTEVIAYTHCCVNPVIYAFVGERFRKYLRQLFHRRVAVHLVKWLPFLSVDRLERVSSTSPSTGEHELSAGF
# CCR2B = CCR2B (Homo sapiens, UniProt P41597); assay: as above; settings: read-out: Percentage inhibition
# CGRP1 = CGRP1 (Homo sapiens, UniProt O60894+Q16602); assay: as above; settings: read-out: Percentage inhibition
# CRF1 = CRF1 (Homo sapiens, UniProt P34998); assay: as above; settings: read-out: Percentage inhibition
# CX3CR1 = CX3CR1 (Homo sapiens, UniProt P49238); assay: as above; settings: read-out: Percentage inhibition
# CXCR1 = CXCR1 (Homo sapiens, UniProt P25024); assay: as above; settings: read-out: Percentage inhibition
# Chain of CXCR1 (P25024 whole entry): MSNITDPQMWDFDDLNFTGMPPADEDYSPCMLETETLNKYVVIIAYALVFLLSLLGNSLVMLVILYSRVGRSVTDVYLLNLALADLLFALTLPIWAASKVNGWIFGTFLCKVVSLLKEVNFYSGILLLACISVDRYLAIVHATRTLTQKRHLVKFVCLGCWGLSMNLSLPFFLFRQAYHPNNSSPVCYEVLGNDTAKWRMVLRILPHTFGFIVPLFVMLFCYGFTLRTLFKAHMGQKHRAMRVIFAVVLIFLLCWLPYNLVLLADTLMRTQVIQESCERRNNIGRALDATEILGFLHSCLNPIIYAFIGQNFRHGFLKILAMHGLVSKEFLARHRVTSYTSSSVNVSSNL
# CysLT1 = CysLT1 (Homo sapiens, UniProt Q9Y271); assay: as above; settings: read-out: Percentage inhibition
# D1 = D1 (Homo sapiens, UniProt P21728); assay: as above; settings: read-out: Percentage inhibition
# D2L = D2L (Homo sapiens, UniProt P14416); assay: as above; settings: read-out: Percentage inhibition
# D5 = D5 (Homo sapiens, UniProt P21918); assay: as above; settings: read-out: Percentage inhibition
# DP = DP (Homo sapiens, UniProt Q13258); assay: as above; settings: read-out: Percentage inhibition
# EP2 = EP2 (Homo sapiens, UniProt P43116); assay: as above; settings: read-out: Percentage inhibition
# EP3 = EP3 (Homo sapiens, UniProt P43115); assay: as above; settings: read-out: Percentage inhibition
# ETA = ETA (Homo sapiens, UniProt P25101); assay: as above; settings: read-out: Percentage inhibition
# ETB = ETB (Homo sapiens, UniProt P24530); assay: as above; settings: read-out: Percentage inhibition
# Chain of ETB (P24530 27-442): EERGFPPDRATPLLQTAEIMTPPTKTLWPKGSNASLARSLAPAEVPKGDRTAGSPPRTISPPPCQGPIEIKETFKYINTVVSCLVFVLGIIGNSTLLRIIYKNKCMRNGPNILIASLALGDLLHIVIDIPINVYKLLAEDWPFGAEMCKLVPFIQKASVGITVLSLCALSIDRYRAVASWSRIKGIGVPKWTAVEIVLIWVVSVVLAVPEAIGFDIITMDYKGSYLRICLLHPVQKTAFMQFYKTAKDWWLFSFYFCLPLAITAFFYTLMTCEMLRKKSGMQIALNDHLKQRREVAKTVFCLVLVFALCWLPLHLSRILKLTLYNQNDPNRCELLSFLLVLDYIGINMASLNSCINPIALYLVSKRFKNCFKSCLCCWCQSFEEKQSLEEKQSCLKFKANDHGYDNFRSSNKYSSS
# FP = FP (Homo sapiens, UniProt P43088); assay: as above; settings: read-out: Percentage inhibition
# FPR1 = FPR1 (Homo sapiens, UniProt P21462); assay: as above; settings: read-out: Percentage inhibition
# GAL1 = GAL1 (Homo sapiens, UniProt P47211); assay: as above; settings: read-out: Percentage inhibition
# GnRH/LHRH = GnRH/LHRH (Homo sapiens, UniProt P30968); assay: as above; settings: read-out: Percentage inhibition
# GPR109A = GPR109A (Homo sapiens, UniProt Q8TDS4); assay: as above; settings: read-out: Percentage inhibition
# H1 = H1 (Homo sapiens, UniProt P35367); assay: as above; settings: read-out: Percentage inhibition
# H2 = H2 (Homo sapiens, UniProt P25021); assay: as above; settings: read-out: Percentage inhibition
# H3 = H3 (Homo sapiens, UniProt Q9Y5N1); assay: as above; settings: read-out: Percentage inhibition
# Chain of H3 (Q9Y5N1 whole entry): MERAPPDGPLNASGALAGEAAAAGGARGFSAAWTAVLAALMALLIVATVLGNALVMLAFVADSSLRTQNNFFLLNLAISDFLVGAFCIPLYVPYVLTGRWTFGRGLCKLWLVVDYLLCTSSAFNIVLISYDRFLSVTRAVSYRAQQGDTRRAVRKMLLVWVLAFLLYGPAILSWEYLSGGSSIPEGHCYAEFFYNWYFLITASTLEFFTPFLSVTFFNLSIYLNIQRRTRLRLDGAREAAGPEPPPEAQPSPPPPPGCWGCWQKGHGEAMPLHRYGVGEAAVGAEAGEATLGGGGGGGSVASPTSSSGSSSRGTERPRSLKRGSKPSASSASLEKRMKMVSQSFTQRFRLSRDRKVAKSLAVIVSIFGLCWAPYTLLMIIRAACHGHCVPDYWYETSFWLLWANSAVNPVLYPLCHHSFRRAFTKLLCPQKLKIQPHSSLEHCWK
# IP1 = IP1 (Homo sapiens, UniProt P43119); assay: as above; settings: read-out: Percentage inhibition
# LPA1 = LPA1 (Homo sapiens, UniProt Q92633); assay: as above; settings: read-out: Percentage inhibition
# Chain of LPA1 (Q92633 whole entry): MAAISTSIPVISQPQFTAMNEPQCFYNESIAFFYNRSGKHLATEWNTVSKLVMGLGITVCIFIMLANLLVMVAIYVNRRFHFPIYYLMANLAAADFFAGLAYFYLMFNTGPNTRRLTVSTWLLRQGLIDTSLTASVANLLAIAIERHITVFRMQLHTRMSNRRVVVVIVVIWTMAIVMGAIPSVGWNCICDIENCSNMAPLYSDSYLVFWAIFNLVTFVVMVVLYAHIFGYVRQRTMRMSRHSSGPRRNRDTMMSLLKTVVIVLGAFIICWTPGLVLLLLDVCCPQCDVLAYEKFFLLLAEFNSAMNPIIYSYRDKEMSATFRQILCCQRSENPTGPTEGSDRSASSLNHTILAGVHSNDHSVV
# LPA3 = LPA3 (Homo sapiens, UniProt Q9UBY5); assay: as above; settings: read-out: Percentage inhibition
# M1 = M1 (Homo sapiens, UniProt P11229); assay: as above; settings: read-out: Percentage inhibition
# M2 = M2 (Homo sapiens, UniProt P08172); assay: as above; settings: read-out: Percentage inhibition
# Chain of M2 (P08172 whole entry): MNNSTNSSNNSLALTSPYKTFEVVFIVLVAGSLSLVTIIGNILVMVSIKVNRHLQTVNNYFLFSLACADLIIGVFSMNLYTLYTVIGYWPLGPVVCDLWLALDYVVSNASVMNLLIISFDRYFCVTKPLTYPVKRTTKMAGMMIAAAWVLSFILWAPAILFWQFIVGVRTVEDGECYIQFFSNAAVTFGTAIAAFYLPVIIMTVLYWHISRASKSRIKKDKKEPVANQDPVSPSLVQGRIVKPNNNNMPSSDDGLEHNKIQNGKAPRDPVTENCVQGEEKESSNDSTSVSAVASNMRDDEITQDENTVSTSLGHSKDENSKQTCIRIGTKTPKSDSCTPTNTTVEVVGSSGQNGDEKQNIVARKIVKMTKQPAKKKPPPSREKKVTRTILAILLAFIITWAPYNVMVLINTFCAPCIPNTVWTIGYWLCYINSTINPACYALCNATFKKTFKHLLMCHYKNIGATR
# M3 = M3 (Homo sapiens, UniProt P20309); assay: as above; settings: read-out: Percentage inhibition
# MC5 = MC5 (Homo sapiens, UniProt P33032); assay: as above; settings: read-out: Percentage inhibition
# Motilin receptor = Motilin receptor (Homo sapiens, UniProt O43193); assay: as above; settings: read-out: Percentage inhibition
# NK1 = NK1 (Homo sapiens, UniProt P25103); assay: as above; settings: read-out: Percentage inhibition
# NK3 = NK3 (Homo sapiens, UniProt P29371); assay: as above; settings: read-out: Percentage inhibition
# NMU1 = NMU1 (Homo sapiens, UniProt Q9HB89); assay: as above; settings: read-out: Percentage inhibition
# NTR1 = NTR1 (Homo sapiens, UniProt P30989); assay: as above; settings: read-out: Percentage inhibition
# OPRD1 = OPRD1 (Homo sapiens, UniProt P41143); assay: as above; settings: read-out: Percentage inhibition
# OPRK1 = OPRK1 (Homo sapiens, UniProt P41145); assay: as above; settings: read-out: Percentage inhibition
# OPRM1 = OPRM1 (Homo sapiens, UniProt P35372); assay: as above; settings: OPRM1, read-out: Percentage inhibition
# OT = OT (Homo sapiens, UniProt P30559); assay: as above; settings: read-out: Percentage inhibition
# Chain of OT (P30559 whole entry): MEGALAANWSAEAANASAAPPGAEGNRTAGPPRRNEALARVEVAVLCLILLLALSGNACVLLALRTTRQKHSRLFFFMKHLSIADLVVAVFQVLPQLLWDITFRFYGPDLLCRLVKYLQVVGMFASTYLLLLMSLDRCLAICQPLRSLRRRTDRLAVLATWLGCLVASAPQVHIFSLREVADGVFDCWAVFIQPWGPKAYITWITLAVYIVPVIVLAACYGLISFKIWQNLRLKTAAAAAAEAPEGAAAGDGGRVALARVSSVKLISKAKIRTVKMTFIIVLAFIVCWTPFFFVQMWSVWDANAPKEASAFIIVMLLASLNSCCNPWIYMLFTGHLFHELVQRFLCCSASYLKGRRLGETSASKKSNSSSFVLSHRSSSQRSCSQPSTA
# OX1 = OX1 (Homo sapiens, UniProt O43613); assay: as above; settings: read-out: Percentage inhibition
# P2Y1 = P2Y1 (Homo sapiens, UniProt P47900); assay: as above; settings: read-out: Percentage inhibition
# PAC1 long isoform = assay: as above; design: species or system human; settings: 10 μM BIRB0796
# PAF = PAF (Homo sapiens, UniProt P25105); assay: as above; settings: read-out: Percentage inhibition
# PK1 = PK1 (Homo sapiens, UniProt Q8TCW9); assay: as above; settings: PK-1, read-out: Percentage inhibition
# PRP = PRP (Homo sapiens, UniProt P49683); assay: as above; settings: read-out: Percentage inhibition
# PTH1 = PTH1 (Homo sapiens, UniProt Q03431); assay: as above; settings: read-out: Percentage inhibition
# S1P3 = S1P3 (Homo sapiens, UniProt Q99500); assay: as above; settings: read-out: Percentage inhibition
# SST4 = SST4 (Homo sapiens, UniProt P31391); assay: as above; settings: read-out: Percentage inhibition
# TP = TP (Homo sapiens, UniProt P21731); assay: as above; settings: read-out: Percentage inhibition
# Trypsin-mediated PARs = assay: as above; design: species or system human; settings: 10 μM BIRB0796
# TSH = TSH (Homo sapiens, UniProt P16473); assay: as above; settings: read-out: Percentage inhibition
# UT/GPR14 = UT/GPR14 (Homo sapiens, UniProt Q9UKP6); assay: as above; settings: read-out: Percentage inhibition
# V1A = V1A (Homo sapiens, UniProt P37288); assay: as above; settings: read-out: Percentage inhibition
# V2 = V2 (Homo sapiens, UniProt P30518); assay: as above; settings: read-out: Percentage inhibition
# VPAC1 = VPAC1 (Homo sapiens, UniProt P32241); assay: as above; settings: read-out: Percentage inhibition
# VPAC2 = VPAC2 (Homo sapiens, UniProt P41587); assay: as above; settings: read-out: Percentage inhibition
# Y2 = Y2 (Homo sapiens, UniProt P49146); assay: as above; settings: read-out: Percentage inhibition
# Kv1.5 = Kv1.5 (Homo sapiens, UniProt P22460); assay: Cardiac ion channel functional assay, Safety and Liability Panel; type: cell-based
# Chain of Kv1.5 (P22460 whole entry): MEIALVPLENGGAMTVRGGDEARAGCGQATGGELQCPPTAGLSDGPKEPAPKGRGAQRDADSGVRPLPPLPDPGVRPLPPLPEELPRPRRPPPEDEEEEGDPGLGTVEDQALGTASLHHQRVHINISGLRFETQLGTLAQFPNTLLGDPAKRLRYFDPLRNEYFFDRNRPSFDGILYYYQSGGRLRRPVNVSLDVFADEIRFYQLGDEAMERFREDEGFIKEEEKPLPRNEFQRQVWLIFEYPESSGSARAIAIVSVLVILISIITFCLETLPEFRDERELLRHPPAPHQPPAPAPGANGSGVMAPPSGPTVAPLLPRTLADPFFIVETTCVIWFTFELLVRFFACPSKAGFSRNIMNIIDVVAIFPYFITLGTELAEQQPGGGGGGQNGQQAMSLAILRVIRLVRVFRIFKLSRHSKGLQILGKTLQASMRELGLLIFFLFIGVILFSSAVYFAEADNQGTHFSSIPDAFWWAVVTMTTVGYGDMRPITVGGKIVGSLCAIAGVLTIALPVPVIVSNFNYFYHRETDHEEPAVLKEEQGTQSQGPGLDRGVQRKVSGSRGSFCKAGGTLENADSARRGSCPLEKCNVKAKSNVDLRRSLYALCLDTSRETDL
# hERG = hERG (Homo sapiens, UniProt Q12809); assay: in vitro
# Nav1.6 = Nav1.6 (Homo sapiens, UniProt Q9UQD0); assay: IonWorks Quattro 2-pulse inactivated-state protocol; type: cell-based; settings: Predicted IC50 potency values Nav1.6 P1, Pulse 1, 2-pulse protocol
smiles,measurement,setting,value
Cc1ccc(-n2nc(C(C)(C)C)cc2NC(=O)Nc2ccc(OCCN3CCOCC3)c3ccccc23)cc1 [BIRB0796],inhibition at 10 µM,5-HT1A,31%
same,inhibition at 10 µM,5-HT2A,99.5%
same,inhibition at 10 µM,5-HT2B,18.5%
same,inhibition at 10 µM,5-HT2C,5.5%
same,inhibition at 10 µM,A1,19.5%
same,inhibition at 10 µM,A3,20.5%
same,inhibition at 10 µM,Alpha1A,6%
same,inhibition at 10 µM,Alpha1D,3.5%
same,inhibition at 10 µM,Alpha2A,-4%
same,inhibition at 10 µM,AT1,-2.5%
same,inhibition at 10 µM,B2,-4.5%
same,inhibition at 10 µM,BB2,0%
same,inhibition at 10 µM,Beta 1,-6%
same,inhibition at 10 µM,Beta 2,-9.5%
same,inhibition at 10 µM,BLT1,8.5%
same,inhibition at 10 µM,C5aR,-5.5%
same,inhibition at 10 µM,CB1,9%
same,inhibition at 10 µM,CB2,80%
same,inhibition at 10 µM,CCK2,2%
same,inhibition at 10 µM,CCR1,-6%
same,inhibition at 10 µM,CCR2B,0%
same,inhibition at 10 µM,CGRP1,0%
same,inhibition at 10 µM,CRF1,13%
same,inhibition at 10 µM,CX3CR1,-12%
same,inhibition at 10 µM,CXCR1,-1.5%
same,inhibition at 10 µM,CysLT1,2%
same,inhibition at 10 µM,D1,23%
same,inhibition at 10 µM,D2L,53.5%
same,inhibition at 10 µM,D5,14%
same,inhibition at 10 µM,DP,12.5%
same,inhibition at 10 µM,EP2,2.5%
same,inhibition at 10 µM,EP3,7.5%
same,inhibition at 10 µM,ETA,-4%
same,inhibition at 10 µM,ETB,11%
same,inhibition at 10 µM,FP,20.5%
same,inhibition at 10 µM,FPR1,-4.5%
same,inhibition at 10 µM,GAL1,-1.5%
same,inhibition at 10 µM,GnRH/LHRH,-20.5%
same,inhibition at 10 µM,GPR109A,-1%
same,inhibition at 10 µM,H1,-1.5%
same,inhibition at 10 µM,H2,-5.5%
same,inhibition at 10 µM,H3,91.5%
same,inhibition at 10 µM,IP1,12.5%
same,inhibition at 10 µM,LPA1,6.5%
same,inhibition at 10 µM,LPA3,5%
same,inhibition at 10 µM,M1,46.5%
same,inhibition at 10 µM,M2,34.5%
same,inhibition at 10 µM,M3,5%
same,inhibition at 10 µM,MC5,2%
same,inhibition at 10 µM,Motilin receptor,94.5%
same,inhibition at 10 µM,NK1,12%
same,inhibition at 10 µM,NK3,17.5%
same,inhibition at 10 µM,NMU1,22.5%
same,inhibition at 10 µM,NTR1,-12%
same,inhibition at 10 µM,OPRD1,8.5%
same,inhibition at 10 µM,OPRK1,-19%
same,inhibition at 10 µM,OPRM1,-2.5%
same,inhibition at 10 µM,OT,12.5%
same,inhibition at 10 µM,OX1,12%
same,inhibition at 10 µM,P2Y1,10.5%
same,Percentage inhibition,PAC1 long isoform,3.5%
same,inhibition at 10 µM,PAF,19.5%
same,inhibition at 10 µM,PK1,-6.5%
same,inhibition at 10 µM,PRP,3%
same,inhibition at 10 µM,PTH1,0%
same,inhibition at 10 µM,S1P3,-1.5%
same,inhibition at 10 µM,SST4,-5.5%
same,inhibition at 10 µM,TP,32%
same,Percentage inhibition,Trypsin-mediated PARs,9.0%
same,inhibition at 10 µM,TSH,-4%
same,inhibition at 10 µM,UT/GPR14,18.5%
same,inhibition at 10 µM,V1A,2%
same,inhibition at 10 µM,V2,1%
same,inhibition at 10 µM,VPAC1,-2%
same,inhibition at 10 µM,VPAC2,-4%
same,inhibition at 10 µM,Y2,-13.5%
same,inhibition at 10 µM,Kv1.5,≥ 50%
same,inhibition at 10 µM,hERG,≥ 50%
CCN(CC)CC(=O)Nc1c(C)cccc1C [Lidocaine],IC50,Nav1.6,270 µM
